Earlier results in patent US20220331279A1, “THERAPEUTIC METHODS AND COMPOSITIONS FOR TREATING CANCER USING 6,8-BIS-BENZYLTHIO-OCTANOIC ACID AND A GLUTAMINASE INHIBITOR” (Rafael Pharmaceuticals, lnc., priority 2019, published 2022).

Conditions: after IV dosing; Pardee, T. S. et al., Clin. Cancer Res. 2014, 20, 5255-64

O=C(O)CCCCC(CCSCc1ccccc1)SCc1ccccc1 (stereo not shown) [6,8-bis-benzylthio-octanoic acid]
half-life: 1 to 2 h
